According to patent publication US7744867B2, “PTPase inhibitors and method of using same” (The Cleveland Clinic Foundation, priority 2001, dated 2010):

Tests used:
[1] = tested on: acute promyelocytic leukemia (APL); conditions: in vivo; cited from earlier work
[2] = tested on: NB4 cells; test: Differentiation, proliferation and cell cycle of AML cell line; format: cell-based, human; conditions: 3 days; sodium stibogluconate 250 μg/ml, ATRA 1 μM
Procedure: Cell lines, cell culture, and cell proliferation assay. The NB4 cell line was a gift from Dr. Dan Lindner of CCF. HL60 and U937 cell lines were purchased from ATCC. These human AML cell lines were maintained in RPMI 1640 medium supplemented with 10% fetal calf serum (FCS). For cell proliferation assays, cells were cultured at 37° C. in 10% FCS medium containing various amounts of sodium stibogluconate for 6 days. The cell numbers in the cultures were determined by an MTT assay as described previously.
Differentiation of AML cell lines was assessed by their ability to produce superoxide as measured by reduction of NBT to formazan and by analysis of expression of CD11b surface marker by flow cytometry. For NBT reduction, each cell suspension was mixed with an equal volume of solution containing 1 mg/ml of NBT (Sigma) and 2.5 μg/ml of TPA for 30 minutes at 37° C. After incubation, cells containing the purple formazan deposits and cells devoid of NBT-reducing activity (white cells) in each sample were determined by counting 200 cells under microscope. We expressed the data as percentage of the following ratio: purple cells/purple+white cells. For analysis of cell surface antigens, cells were exposed to phycoerythrin (PE)−conjugated murine anti-human CD11b (DAKO corp, Carpinteria, Calif.). Analysis of fluorescence was performed on a FACScan flow cytometer (Beckton Dickinson, Mountain View, Calif.). The cell cycle was analyzed by flow cytometry after 3 days of culture of NB4 cells in the absence or presence of sodium stibogluconate (250 μg/ml) or ATRA (1 μM). Briefly, the cells were fixed in cold ethanol and incubated for 30 minutes at 4° C. in the dark with a solution of […] propidium iodide, 1 mg/ml RNase and 0.1% NP-40. Analysis was performed immediately after staining using the CELLFIT program (Becton Dickinson, Mountain View, Calif.).

[3] = target: T1, recombinant PRL-1 (Homo sapiens, UniProt Q93096); test: In vitro PTPase assay with recombinant PRL; format: biochemical; conditions: peptide substrate
T1 construct: made in house; host or cells: E. coli DH5α
Procedure: (§1) In vitro PTPase activities were measured using the commercial protein tyrosine phosphatase assay kit (UBI) following established procedure. […] 100 μl of Malachite Green solution was added and incubated for 5 minutes, and the absorbance at 660 nm was measured after 5 minutes.
(§2) Recombinant GST fusion proteins of human PRL-1, 2 and 3 phosphatases were purified with glutathione beads from DH5α bacteria transformed by pGEX vectors containing cDNA fragments encoding the human PRLs which were generated by RT-PCR from H9 cells and confirmed by sequence analysis. Activities of the purified recombinant PRL proteins in dephosphorylating DiFMUP in the absence or presence of various inhibitors were measured following established procedure.
(§3) To assess whether sodium stibogluconate is an inhibitor of oncogenic PRL phosphatases, its effects on the PTPase activity of recombinant PRLs were evaluated by in vitro PTPase assays.

[4] = target: T2, recombinant PRL-2 (Homo sapiens, UniProt Q12974); test: In vitro PTPase assay with recombinant PRL; format: biochemical
T2 construct: made in house; host or cells: E. coli DH5α
T2 sequence (Q12974 1-167): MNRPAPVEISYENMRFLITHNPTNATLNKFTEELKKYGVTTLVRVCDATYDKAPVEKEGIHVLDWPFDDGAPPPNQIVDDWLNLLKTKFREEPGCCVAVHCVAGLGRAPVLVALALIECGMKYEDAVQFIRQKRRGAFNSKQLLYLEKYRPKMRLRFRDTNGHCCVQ
Procedure: as §1, §2, §3

[5] = target: T3, PTP1B (GST fusion protein) (Homo sapiens, UniProt P18031); test: In vitro PTPase assay, dephosphorylation of a synthetic phosphotyrosine peptide; format: biochemical
T3 construct: purchased Upstate Biotechnology Inc. (UBI, Lake Placid, N.Y.)
Procedure: as §1

[6] = target: T4, intracellular Flag-PRL-2 (Homo sapiens, UniProt Q12974); test: PTPase activity of anti-Flag immunocomplexes from NIH3T3 transfectants; format: cell-based
T4 construct: expressed in transfected cells; host or cells: NIH3T3
T4 sequence (Q12974 1-167): T2 sequence (Q12974 1-167)
Procedure: (§4) An expression construct of Flag-tagged PRL-1 or control vector was transfected into NIH3T3 cells which were then treated without or with sodium stibogluconate and used for immunoprecipitation assays with a monoclonal anti-Flag antibody. The immunocomplexes were analyzed by SDS-PAGE/Western blotting and PTPase assays. A Flag-tagged protein with a molecular weight approximately 22 kDa as expected for Flag-PRL-1 was detected in the immunocomplexes from untreated or sodium stibogluconate -treated Flag-PRL-1 transfectants but not in those from the control cells (FIG. 6A).
Flag-PRL-2 transfectants were briefly treated with sodium stibogluconate for 5 minutes, washed to remove cell-free drug and then incubated for various times prior to termination by cell lysis. Anti-Flag immunocomplexes from the cells were analyzed by SDS-PAGE/Western blotting and PTPase assays. The amounts of Flag-PRL-2 proteins in the immunocomplexes were at similar levels as quantified by probing with an anti-Flag antibody. […] PTPase activity of the immunocomplexes from cells incubated for 24 hours was 78% of the untreated cells.
Glucatime-induced inactivation of intracellular PRL-2 lasts more than 24 hours. NIH3T3 stable transfectant of Flag-tagged PRL-2 was treated with glucatime for 5 minutes, washed to remove cell free drug and then incubated for various times prior to termination by lysing the cells in lysis buffer. Flag-tagged PRL-2 was immunoprecipitated from the cell lysates using a monoclonal anti-Flag antibody. The amounts of Flag-tagged PRL-2 in the immunocomplexes were quantified by SDS-PAGE/Western blotting with the anti-Flag antibody (A). Activities of the immunocomplexes in dephosphorylating a synthetic phosphotyrosine peptide were determined by in vitro PTPase assays (B).

[7] = target: T5, GST/SHP-1 fusion protein (Mus musculus, UniProt P29351); test: Reversibility of SHP-1 inhibition (washing of bead-bound GST/SHP-1); format: biochemical; conditions: preincubated with inhibitor, then washed
T5 construct: made in house
Description: The beads were then washed 3 times in Tris buffer or without washing prior to in vitro PTPase assays.

[8] = target: T6, recombinant PRL-3 (Homo sapiens, UniProt O75365); test: In vitro PTPase assay with recombinant PRL (peptide or DiFMUP substrate); format: biochemical
T6 construct: made in house; host or cells: E. coli DH5α
Procedure: as §1, §2, §3

[9] = target: T7, intracellular Flag-PRL-3 (Homo sapiens, UniProt O75365); test: PTPase activity of anti-Flag immunocomplexes from NIH3T3 transfectants; format: cell-based; conditions: treated 5 min
T7 construct: expressed in transfected cells; host or cells: NIH3T3
Procedure: as §4
(§5) Glucatime inactivates intracellular PRL phosphatases. NIH3T3 stable transfectants of Flag-tagged PRL-1 (A), PRL-2 (B) and PRL-3 (C) were untreated or treated with glucatime for 5 minutes and then washed to remove cell free drug. The Flag-tagged PRLs were immunoprecipitated from the cells using a monoclonal anti-Flag antibody. The amounts of Flag-tagged PRLs in the immunocomplexes were quantified by SDS-PAGE/Western blotting with the anti-Flag antibody (the top panel). Activities of the immunocomplexes in dephosphorylating a synthetic phosphotyrosine peptide were determined by in vitro PTPase assays (the low panel).

[10] = target: T8, intracellular Flag-PRL-1 (Homo sapiens, UniProt Q93096); test: as above; format: cell-based; conditions: treated 5 min
T8 construct: expressed in transfected cells; host or cells: NIH3T3
Procedure: as §4, §5

[11] = target: T9, intracellular PTP1B (Mus musculus, UniProt P35821); test: PTPase activity of anti-PTP1B immunocomplexes from NIH3T3 cells; format: cell-based; conditions: treated 5 minutes
T9 construct: endogenous in cells; host or cells: NIH3T3
Procedure: NIH3T3 cells were untreated or treated with glucatime for 5 minutes. PTP1B protein was immunoprecipitated from the cells using an anti-PTP1B antibody. The amounts of PTP1B in the immunocomplexes were quantified by SDS-PAGE/Western blotting with the anti-PTP1B antibody (A). Activities of the immunocomplexes in dephosphorylating a synthetic phosphotyrosine peptide were determined by in vitro PTPase assays (B).

[12] = tested on: human cancer cell lines (A549, DR, HEY, MDA231, SK-N-SH, WM9); test: Growth of human cancer cell lines with glucatime and/or IFNα (MTT, 6 days); format: cell-based
Procedure: Growth of human cancer cell lines cultured in the absence or presence of glucatime and/or IFNα (500 U/ml) for 6 days were determined by MTT assays. These cell lines were of different human malignancies, including lung cancer (A549), lymphoma (DR), ovarian cancer (HEY), breast cancer (MDA231, or MDA), neuroblastoma (SK-N-SH, or SK) and melanoma (WM9).

[13] = target: T5, GST/SHP-1 fusion protein; test: In vitro PTPase assay, dephosphorylation of a synthetic phosphotyrosine peptide; format: biochemical; conditions: under comparable conditions
Procedure: In vitro PTPase activities were measured using the commercial protein tyrosine phosphatase assay kit (UBI) following established procedure. This assay measures the in vitro dephosphorylation of a synthetic phosphotyrosine peptide (R-R-L-I-E-D-A-E-pY-A-A-R-G). Briefly, 0.01 μg of GST/PTPase fusion protein was incubated in 50 μl of Tris buffer (10 mM Tris, […]) at 22° C. for 10 minutes, followed by addition of 0.2 mM of the phosphotyrosine peptide and incubation at 22° C. for 18 hours. 100 μl of Malachite Green solution was added and incubated for 5 minutes, and the absorbance at 660 nm was measured after 5 minutes.

T5 sequence (P29351 whole entry, the tested form may be a part): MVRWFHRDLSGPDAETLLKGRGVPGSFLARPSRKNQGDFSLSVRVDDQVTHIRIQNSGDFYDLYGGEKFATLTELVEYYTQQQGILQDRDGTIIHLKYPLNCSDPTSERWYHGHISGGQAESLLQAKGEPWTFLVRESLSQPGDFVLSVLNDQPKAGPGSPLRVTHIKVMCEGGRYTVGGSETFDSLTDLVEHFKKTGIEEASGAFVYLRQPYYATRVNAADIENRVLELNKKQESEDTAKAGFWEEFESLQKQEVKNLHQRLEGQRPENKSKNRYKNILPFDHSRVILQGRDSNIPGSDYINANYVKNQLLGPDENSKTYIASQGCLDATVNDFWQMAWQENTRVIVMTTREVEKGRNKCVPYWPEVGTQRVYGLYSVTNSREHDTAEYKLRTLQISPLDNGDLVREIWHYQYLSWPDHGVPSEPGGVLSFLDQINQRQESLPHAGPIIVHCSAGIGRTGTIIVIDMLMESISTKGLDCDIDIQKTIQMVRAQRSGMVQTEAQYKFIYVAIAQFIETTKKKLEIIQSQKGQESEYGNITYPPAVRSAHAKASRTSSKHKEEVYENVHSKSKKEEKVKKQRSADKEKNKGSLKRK
T6 sequence (O75365 whole entry): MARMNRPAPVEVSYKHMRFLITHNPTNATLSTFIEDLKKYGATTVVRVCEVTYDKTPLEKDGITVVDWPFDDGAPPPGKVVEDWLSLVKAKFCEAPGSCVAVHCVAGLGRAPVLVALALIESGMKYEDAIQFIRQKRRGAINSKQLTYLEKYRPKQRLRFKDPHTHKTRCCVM
T3 sequence (P18031 whole entry, species assumed, the tested form may be a part): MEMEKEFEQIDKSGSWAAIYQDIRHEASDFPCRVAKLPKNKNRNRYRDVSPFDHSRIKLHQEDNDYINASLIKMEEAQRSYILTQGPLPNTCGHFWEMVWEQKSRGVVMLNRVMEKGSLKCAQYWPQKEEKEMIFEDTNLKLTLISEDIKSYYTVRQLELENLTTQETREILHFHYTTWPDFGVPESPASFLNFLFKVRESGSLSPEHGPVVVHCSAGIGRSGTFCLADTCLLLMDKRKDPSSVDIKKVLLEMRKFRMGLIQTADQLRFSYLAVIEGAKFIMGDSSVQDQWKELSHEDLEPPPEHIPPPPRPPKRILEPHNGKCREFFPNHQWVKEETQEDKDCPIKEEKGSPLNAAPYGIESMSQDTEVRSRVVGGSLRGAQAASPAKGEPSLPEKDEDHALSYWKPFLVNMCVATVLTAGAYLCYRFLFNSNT
T7 sequence (O75365 whole entry): as the sequence (O75365 whole entry) above
T9 sequence (P35821 whole entry): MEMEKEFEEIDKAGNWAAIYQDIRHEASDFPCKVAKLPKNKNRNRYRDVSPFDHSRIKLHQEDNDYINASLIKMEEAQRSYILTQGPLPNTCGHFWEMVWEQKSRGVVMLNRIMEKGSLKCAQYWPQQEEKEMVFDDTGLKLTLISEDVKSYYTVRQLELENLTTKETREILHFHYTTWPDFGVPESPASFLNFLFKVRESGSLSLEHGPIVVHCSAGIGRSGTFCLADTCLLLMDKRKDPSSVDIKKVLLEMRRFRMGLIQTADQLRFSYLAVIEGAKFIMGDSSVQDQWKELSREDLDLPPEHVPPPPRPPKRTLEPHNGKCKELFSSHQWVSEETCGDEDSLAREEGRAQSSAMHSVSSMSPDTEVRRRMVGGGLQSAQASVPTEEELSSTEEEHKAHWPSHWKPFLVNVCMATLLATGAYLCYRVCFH
T8 sequence (Q93096 whole entry): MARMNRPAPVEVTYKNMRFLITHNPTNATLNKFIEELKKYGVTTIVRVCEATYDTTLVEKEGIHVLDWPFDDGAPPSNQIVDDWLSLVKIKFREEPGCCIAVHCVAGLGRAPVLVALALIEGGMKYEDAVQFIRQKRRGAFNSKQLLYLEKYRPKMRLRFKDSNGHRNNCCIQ
T1 sequence (Q93096 whole entry): as above

| SMILES | long term APL-free survival [1] | cell cycle arrest (DNA content analysis) [2] | inhibition of recombinant PRL-1 [3] | inhibition of recombinant PRL-2 ([4]; peptide substrate) | reversibility of PRL-2 inactivation ([4]; washing process / stable complex) | effect against recombinant PTP1B in vitro [5] | PTPase activity of Flag-PRL-2 immunocomplexes from treated transfectants ([6]; treated 5 min) | duration of intracellular PRL-2 inactivation ([6]; treated 5 minutes, washed to remove cell free drug) | reversibility of SHP-1 inhibition [7] | inhibition of recombinant PRL-3 ([8]; peptide substrate) | PTPase activity of Flag-PRL-3 immunocomplexes from treated transfectants [9] | PTPase activity of Flag-PRL-1 immunocomplexes from treated transfectants [10] | inhibition of intracellular PTP1B [11] | IFNα-induced growth inhibition in presence of glucatime ([12]; IFNα 500 U/ml) | growth of human cancer cell lines in culture ([12]; MTT) | inhibition of SHP-1 compared with sodium stibogluconate [13] | inhibition of PRL-3 compared with sodium stibogluconate ([8]; DiFMUP substrate, comparable conditions) |
| --- | --- | --- | --- | --- | --- | --- | --- | --- | --- | --- | --- | --- | --- | --- | --- | --- | --- |
| CC1=C(/C=C/C(C)=C/C=C/C(C)=C/C(=O)O)C(C)(C)CCC1 [ATRA, all-trans-retinoic acid] | exceeding 75% | arrested at G1 phase |  |  |  |  |  |  |  |  |  |  |  |  |  |  |  |
| CNC[C@H](O)[C@@H](O)[C@H](O)[C@H](O)CO.[O]=[Sb]([OH])([OH])[OH] [glucatime, meglumine antimonate] |  |  | potent inhibitor | potent inhibitor | irreversible | partial inhibitory effect | inactivates | more than 24 hours | irreversible | potent inhibitor | inactivates | inactivates | partial inhibition | augments | inhibits the growth |  |  |
| Cc1ccc(C(=O)Nc2ccc(S(=O)(=O)O)c3cc(S(=O)(=O)O)cc(S(=O)(=O)O)c23)cc1NC(=O)c1cccc(NC(=O)Nc2cccc(C(=O)Nc3cc(C(=O)Nc4ccc(S(=O)(=O)O)c5cc(S(=O)(=O)O)cc(S(=O)(=O)O)c45)ccc3C)c2)c1 [suramin] |  |  |  |  |  |  |  |  | reversible |  |  |  |  |  |  | less effective | less effective |
